% of inhibition, % of control and % binding data for 7 compounds are collected here from ChEMBL document CHEMBL5465560, “Selectivity Literature for EUbOPEN Chemogenomic Library” (2024).

Experiment [1] has as its target T1, Phosphatidylinositol 5-phosphate 4-kinase type-2 gamma (Homo sapiens) (UniProt Q8TBX8).
T1 sequence (whole entry): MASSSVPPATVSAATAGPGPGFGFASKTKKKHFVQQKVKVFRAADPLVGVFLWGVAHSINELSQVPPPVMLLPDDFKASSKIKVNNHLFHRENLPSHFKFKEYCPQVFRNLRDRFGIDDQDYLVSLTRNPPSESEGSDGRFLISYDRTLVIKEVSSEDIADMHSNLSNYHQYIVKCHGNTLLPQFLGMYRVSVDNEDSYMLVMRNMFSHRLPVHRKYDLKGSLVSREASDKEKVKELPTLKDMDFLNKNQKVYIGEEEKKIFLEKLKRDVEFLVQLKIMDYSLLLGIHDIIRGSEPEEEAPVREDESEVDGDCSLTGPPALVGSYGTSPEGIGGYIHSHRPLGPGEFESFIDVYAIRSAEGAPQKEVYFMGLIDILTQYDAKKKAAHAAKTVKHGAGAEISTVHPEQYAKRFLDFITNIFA
The experiment can be described thus: Selectivity interaction (ActivX KiNativ screen (ex vivo kinase selectivity in human PBMCs)) EUB0001619a PIP4K2C. The settings on record: PBMC, at 1 µM. In kind it is cell-based.

The target of experiment [2] is Glutamate receptor 1 (Homo sapiens) (UniProt P42261). The experiment can be described thus: Selectivity interaction (Eurofins CEREP Diversity Profile (receptors and ion channels)) EUB0000279b GRIA1. The settings on record: at 10 µM.
The target of experiment [3] is Ribosomal protein S6 kinase alpha-6 (Homo sapiens, UniProt Q9UK32). Kind of experiment: Selectivity interaction (KinomeScan (DiscoverX)) EUB0000666a RPS6KA6. The settings on record: at 10 µM.
The target of experiment [4] is Epidermal growth factor receptor (Homo sapiens, UniProt P00533). Kind of experiment: Selectivity interaction (Kinase panel (Invitrogen)) EUB0000639a EGFR. The settings on record: at 200 nM.
Experiment [5] has as its target T2, Tyrosine-protein kinase Mer (Homo sapiens) (UniProt Q12866).
T2 sequence (whole entry): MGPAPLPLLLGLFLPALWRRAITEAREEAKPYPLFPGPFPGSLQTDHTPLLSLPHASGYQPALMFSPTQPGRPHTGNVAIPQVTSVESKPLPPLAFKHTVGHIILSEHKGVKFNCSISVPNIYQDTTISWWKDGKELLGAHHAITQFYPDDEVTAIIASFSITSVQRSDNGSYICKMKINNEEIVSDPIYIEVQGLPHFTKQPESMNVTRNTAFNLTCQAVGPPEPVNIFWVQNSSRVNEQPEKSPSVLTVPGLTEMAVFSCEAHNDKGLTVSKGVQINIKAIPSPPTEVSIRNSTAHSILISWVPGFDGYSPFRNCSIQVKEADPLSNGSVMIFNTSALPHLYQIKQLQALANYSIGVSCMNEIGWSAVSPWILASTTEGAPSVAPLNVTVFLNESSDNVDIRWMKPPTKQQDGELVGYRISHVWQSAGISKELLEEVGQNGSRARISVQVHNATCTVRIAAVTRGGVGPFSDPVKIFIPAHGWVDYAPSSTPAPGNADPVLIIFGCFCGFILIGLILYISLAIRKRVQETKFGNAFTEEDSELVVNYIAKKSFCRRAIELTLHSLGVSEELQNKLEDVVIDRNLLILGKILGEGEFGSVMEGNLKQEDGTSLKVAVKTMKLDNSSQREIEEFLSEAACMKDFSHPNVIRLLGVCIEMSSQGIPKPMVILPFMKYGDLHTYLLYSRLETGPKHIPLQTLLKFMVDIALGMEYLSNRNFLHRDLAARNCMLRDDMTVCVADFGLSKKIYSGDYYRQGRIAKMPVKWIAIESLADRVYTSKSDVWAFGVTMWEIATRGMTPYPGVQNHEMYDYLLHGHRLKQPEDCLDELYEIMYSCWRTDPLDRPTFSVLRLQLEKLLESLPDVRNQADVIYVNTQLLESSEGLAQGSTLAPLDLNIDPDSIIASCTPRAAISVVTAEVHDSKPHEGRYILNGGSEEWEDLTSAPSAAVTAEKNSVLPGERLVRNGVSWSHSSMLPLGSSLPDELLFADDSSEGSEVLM
Kind of experiment: Selectivity interaction (Kinase panel (Invitrogen)) EUB0000639a MERTK. The settings on record: at 200 nM.

Experiment [6] concerns the target T3, Serine/threonine-protein kinase TAO1 (Homo sapiens) (UniProt Q7L7X3).
T3 sequence (whole entry): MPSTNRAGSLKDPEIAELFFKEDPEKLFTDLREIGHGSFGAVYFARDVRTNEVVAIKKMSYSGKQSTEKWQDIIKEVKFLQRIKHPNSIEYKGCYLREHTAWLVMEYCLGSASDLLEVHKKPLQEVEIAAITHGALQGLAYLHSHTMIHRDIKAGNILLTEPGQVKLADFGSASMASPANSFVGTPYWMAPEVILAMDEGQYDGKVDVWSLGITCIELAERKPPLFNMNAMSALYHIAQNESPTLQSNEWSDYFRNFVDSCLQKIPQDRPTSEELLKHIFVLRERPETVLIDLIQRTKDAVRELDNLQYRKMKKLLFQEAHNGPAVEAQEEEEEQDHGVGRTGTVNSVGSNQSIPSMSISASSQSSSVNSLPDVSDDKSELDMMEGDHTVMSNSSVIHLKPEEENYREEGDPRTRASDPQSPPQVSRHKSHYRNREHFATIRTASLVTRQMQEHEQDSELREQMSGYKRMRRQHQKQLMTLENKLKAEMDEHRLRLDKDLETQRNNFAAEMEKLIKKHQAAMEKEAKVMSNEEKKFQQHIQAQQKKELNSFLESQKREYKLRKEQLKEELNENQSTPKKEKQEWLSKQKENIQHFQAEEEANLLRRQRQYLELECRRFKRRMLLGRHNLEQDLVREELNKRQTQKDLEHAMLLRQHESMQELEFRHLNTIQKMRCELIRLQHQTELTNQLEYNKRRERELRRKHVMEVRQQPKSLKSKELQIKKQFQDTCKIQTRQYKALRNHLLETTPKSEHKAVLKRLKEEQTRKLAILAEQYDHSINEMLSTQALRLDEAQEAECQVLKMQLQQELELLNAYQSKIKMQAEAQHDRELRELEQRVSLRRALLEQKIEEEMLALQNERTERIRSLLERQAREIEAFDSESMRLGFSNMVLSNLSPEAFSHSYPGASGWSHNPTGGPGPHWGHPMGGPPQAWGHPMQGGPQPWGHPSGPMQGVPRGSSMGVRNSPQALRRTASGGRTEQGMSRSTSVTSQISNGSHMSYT
Kind of experiment: Selectivity interaction (KinomeScan (DiscoverX)) EUB0001049a TAOK1. The settings on record: at 1 µM.

The target in experiment [7] is Dual specificity mitogen-activated protein kinase kinase 2 (Homo sapiens) (UniProt P36507). Kind of experiment: Selectivity interaction (KinomeScan (DiscoverX)) EUB0000655a MAP2K2. The settings on record: at 10 µM.
The target in experiment [8] is Transient receptor potential cation channel subfamily M member 6 (Homo sapiens) (UniProt Q9BX84). Kind of experiment: Selectivity interaction (KinomeScan (DiscoverX)) EUB0000229b TRPM6. The settings on record: at 10 µM.

SMILES strings stand for the structures.

Chain of Glutamate receptor 1 (Homo sapiens) (P42261 whole entry): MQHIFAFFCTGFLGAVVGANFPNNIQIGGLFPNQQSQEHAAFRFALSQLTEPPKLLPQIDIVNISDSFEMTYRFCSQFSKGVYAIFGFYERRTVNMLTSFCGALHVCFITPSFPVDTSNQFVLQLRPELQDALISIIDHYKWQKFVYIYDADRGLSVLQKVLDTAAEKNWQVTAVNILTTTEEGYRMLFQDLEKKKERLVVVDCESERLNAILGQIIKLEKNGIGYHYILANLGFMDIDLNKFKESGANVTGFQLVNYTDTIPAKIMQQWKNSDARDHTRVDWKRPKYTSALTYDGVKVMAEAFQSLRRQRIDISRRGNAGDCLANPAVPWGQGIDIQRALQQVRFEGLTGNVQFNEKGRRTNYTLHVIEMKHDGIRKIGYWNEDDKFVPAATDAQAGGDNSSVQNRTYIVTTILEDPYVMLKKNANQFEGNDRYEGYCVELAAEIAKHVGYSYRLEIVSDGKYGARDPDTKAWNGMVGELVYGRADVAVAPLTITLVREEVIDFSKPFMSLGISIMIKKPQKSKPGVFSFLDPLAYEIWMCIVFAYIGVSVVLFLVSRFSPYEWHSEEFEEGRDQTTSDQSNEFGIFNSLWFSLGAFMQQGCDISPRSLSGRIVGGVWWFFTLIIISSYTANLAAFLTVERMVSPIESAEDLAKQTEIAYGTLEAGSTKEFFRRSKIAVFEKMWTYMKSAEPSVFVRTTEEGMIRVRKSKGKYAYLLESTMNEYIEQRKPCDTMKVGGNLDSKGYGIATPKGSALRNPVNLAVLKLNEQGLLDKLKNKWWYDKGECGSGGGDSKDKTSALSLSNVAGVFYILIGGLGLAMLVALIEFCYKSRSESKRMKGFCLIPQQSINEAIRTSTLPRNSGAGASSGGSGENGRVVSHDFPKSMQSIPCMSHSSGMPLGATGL
Chain of Dual specificity mitogen-activated protein kinase kinase 2 (Homo sapiens) (P36507 whole entry): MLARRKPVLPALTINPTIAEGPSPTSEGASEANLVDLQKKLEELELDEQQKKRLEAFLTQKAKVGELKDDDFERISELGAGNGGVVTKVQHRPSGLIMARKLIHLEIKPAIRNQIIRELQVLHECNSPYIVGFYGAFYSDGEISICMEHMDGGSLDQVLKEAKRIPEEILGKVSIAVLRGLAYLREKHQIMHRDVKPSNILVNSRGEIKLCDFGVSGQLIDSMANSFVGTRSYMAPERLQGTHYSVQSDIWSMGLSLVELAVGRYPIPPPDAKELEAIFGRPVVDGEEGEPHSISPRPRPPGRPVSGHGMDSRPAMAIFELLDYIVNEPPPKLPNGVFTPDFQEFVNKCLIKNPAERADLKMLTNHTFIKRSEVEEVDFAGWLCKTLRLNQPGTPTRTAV
Chain of Epidermal growth factor receptor (P00533 whole entry): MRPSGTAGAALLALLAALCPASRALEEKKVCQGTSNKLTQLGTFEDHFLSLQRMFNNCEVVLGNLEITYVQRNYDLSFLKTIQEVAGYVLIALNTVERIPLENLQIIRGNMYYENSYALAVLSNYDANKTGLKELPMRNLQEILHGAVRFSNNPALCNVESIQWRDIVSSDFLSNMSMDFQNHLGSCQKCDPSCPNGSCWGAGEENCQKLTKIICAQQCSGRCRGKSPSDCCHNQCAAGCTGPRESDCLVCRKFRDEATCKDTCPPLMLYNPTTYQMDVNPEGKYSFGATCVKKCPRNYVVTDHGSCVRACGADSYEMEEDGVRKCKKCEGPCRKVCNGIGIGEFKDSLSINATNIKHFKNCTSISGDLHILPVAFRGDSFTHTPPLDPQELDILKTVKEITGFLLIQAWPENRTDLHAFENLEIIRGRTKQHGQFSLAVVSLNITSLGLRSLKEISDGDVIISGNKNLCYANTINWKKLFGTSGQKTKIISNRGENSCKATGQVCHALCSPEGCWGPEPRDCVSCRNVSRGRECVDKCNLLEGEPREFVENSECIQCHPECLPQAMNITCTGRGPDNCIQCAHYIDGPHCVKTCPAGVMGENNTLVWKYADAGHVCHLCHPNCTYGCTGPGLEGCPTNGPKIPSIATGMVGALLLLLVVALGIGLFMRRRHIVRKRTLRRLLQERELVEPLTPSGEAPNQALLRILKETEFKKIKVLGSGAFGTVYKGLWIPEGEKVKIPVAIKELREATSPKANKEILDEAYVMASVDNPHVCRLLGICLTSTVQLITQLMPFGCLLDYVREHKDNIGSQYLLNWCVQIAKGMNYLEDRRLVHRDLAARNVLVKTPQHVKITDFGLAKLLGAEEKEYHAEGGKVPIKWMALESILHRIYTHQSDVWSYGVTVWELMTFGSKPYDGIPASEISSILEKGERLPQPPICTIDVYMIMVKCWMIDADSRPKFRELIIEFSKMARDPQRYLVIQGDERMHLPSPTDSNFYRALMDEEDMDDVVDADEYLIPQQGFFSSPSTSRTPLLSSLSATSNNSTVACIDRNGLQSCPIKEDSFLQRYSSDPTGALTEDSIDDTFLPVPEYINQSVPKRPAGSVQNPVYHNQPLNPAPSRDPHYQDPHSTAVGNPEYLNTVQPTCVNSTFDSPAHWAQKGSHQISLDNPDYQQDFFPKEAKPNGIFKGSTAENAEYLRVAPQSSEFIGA
Chain of Transient receptor potential cation channel subfamily M member 6 (Homo sapiens) (Q9BX84 whole entry): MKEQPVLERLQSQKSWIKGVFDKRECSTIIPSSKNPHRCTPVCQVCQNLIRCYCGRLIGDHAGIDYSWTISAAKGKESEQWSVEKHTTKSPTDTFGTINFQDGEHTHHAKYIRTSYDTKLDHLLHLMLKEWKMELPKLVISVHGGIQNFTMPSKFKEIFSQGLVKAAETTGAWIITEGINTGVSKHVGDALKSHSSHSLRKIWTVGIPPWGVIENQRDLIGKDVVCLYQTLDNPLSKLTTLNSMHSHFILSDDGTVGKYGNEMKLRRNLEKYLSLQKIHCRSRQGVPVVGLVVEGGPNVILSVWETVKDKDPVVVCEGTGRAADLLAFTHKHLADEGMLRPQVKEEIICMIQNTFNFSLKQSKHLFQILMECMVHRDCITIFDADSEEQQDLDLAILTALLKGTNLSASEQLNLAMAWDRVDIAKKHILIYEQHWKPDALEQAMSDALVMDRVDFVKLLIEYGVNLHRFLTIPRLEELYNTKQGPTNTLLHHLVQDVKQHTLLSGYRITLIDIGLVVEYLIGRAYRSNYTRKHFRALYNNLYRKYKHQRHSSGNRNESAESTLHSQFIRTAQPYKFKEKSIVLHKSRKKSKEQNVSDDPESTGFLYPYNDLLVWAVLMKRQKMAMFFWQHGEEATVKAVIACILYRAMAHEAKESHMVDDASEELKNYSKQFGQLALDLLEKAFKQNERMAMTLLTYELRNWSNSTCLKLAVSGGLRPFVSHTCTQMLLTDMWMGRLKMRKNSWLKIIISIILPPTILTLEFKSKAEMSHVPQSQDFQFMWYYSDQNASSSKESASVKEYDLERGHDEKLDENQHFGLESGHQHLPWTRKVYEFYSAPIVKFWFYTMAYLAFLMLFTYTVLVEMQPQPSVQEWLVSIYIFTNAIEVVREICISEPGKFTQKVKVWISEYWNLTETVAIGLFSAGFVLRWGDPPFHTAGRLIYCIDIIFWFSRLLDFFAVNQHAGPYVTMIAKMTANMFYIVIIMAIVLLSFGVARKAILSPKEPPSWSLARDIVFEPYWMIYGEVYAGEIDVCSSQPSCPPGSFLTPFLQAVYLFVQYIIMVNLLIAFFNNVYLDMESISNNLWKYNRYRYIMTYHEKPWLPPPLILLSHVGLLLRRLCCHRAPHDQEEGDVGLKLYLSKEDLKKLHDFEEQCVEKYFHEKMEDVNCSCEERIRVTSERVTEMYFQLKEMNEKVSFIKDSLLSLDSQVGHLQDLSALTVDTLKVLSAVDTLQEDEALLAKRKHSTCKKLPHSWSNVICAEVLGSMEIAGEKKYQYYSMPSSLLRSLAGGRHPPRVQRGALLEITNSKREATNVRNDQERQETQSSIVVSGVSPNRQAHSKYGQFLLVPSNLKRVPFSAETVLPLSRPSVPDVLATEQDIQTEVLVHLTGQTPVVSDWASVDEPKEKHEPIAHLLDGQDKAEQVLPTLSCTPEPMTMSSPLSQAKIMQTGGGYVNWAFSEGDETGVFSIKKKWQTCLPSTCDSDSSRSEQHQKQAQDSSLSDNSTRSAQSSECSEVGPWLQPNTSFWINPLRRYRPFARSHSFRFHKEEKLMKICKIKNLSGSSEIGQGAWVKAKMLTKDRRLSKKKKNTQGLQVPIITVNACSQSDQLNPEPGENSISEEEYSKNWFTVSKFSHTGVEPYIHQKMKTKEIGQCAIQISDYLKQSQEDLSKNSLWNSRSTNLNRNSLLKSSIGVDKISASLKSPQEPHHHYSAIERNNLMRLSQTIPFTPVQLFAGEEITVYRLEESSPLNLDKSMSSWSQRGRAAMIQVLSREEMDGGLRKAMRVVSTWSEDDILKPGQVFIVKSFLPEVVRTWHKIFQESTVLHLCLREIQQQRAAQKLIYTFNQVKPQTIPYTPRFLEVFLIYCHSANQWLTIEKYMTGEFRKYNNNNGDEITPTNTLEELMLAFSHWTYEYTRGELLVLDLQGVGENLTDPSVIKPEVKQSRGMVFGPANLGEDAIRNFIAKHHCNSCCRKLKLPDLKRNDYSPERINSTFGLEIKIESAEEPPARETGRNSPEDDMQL

`N#Cc1cccc(-c2c[nH]c3ncnc(N4CCOCC4)c23)c1`: the % of inhibition in experiment [1] was 58%. In experiment [2], `CC(=O)c1cc(-c2ccccc2OCC2CC2)c2ncccn12` returned a % of control of 93%. As for `O=C(NOC[C@H](O)CO)c1ccc(F)c(F)c1Nc1ccc(I)cc1F`, the % of control in experiment [3] turned out to be 75%. Regarding `CC[C@@H]1[C@H](F)C(=O)N[C@@H]1COc1nccc2cc(C(N)=O)c(OC)cc12` [ZIMLOVISERTIB], the % of inhibition in experiment [4] came out at 1.25%; in experiment [5] it was 3.13%. As to `COc1cc(Nc2nc(C)cc(-c3cnn4nc(OC)ccc34)n2)cc(C(F)(F)F)c1`, in experiment [6], the % of control was 96%. As for `CN(C)CCOc1ccc(-c2nc(-c3ccncc3)c(-c3ccc4c(c3)CC/C4=N\O)[nH]2)cc1`, the % of control in experiment [7] was 91%. In the case of `COc1cc(N(C)c2ccnc3ccc(C(F)(F)F)cc23)cc(OC)c1OC`, the % binding in experiment [8] was found to be 100%.
